Reference: patent publication US20050203029A1, “Agents for treating <I>flaviviridae</I>infections” (priority 2002, published 2005)
Peptide text beside a SMILES is read from it. * marks the point of attachment. Cbz = O=C(OCc1ccccc1)*

Columns and labels:
[1] = system: West Nile virus; assay: West Nile virus infection of BHK-21 cells (end point titration, RNase protection, immunofluorescence); assay type: cell-based, West Nile flavivirus; conditions: 10 nM PI after infection, 12 hours
[2] = system: BVDV (CP7, NADL); assay: Western blot of pelleted BVDV virions with anti-BVDV core antibodies; assay type: cell-based, bovine viral diarrhea virus; conditions: for production of BVDV virions (pelleted virions): 24 or 48 hours of treatment; for core signal, mature and immature form of the BVDV core protein / quantity of BVDV virus as measured by the core signal: 48 hours of treatment; for quantity of BVDV virus as measured by the core signal: 150 μM
[3] = system: BVDV CP7; assay: BVDV CP7 infection of MDBK cells (end point titration, RNase protection, immunofluorescence); assay type: cell-based, bovine viral diarrhea virus; conditions: 10 nM PI after infection, 30 hours
[4] = system: BVDV; assay: Electron microscopy (TEM) of BVDV-infected MDBK cells and virus supernatants; assay type: cell-based, bovine viral diarrhea virus

SMILES	reduction in the number of progeny viruses released [1]	reduction in the rate of RNA replication (factor) [1]	production of BVDV virions (pelleted virions) [2]	core signal, mature and immature form of the BVDV core protein [2]	quantity of BVDV virus as measured by the core signal [2] [%]	reduction in the number of progeny viruses released [3]	reduction in the rate of RNA replication (factor) [3]	number of virus particles detected in cellular vesicles vs mock ([4]; 10 μm MG132, 30 hours)	ratio of completely assembled to incompletely assembled virions ([4]; 10 μm MG132, 30 hours)	morphology of secreted viruses vs wild-type viruses ([4]; supernatants of PI-treated vs mock-treated cells)
CC(=O)N[C@@H](CSC(=O)[C@]1([C@@H](O)C(C)C)NC(=O)[C@H](C)[C@@H]1O)C(=O)O [lactacystin]	slight	slight	block the production of BVDV virions	dose-dependent decrease	10	slight	slight			
CC(C)C[C@@H](C=O)NC(=O)[C@H](CC(C)C)NC(=O)[C@H](CC(C)C)NC(=O)OCc1ccccc1 [MG132, N-carbobenzoxy-L-leucinyl-L-leucinyl-L-leucinal] (Cbz-Leu-Leu-Leu-aldehyde)	several log steps		block the production of BVDV virions	dose-dependent decrease	10	several log steps		significantly smaller number of virus particles	shifted significantly in favor of incompletely assembled virus particles	changed markedly
